Results published in US20210238139A1, “MODULATORS OF TRYPTOPHAN CATABOLISM” (E-Therapeutics PLC, priority 2018, published 2021).

What follows are compounds tested on SK-OV-3 cells (assay: Effect of compounds on tryptophan catabolism in SK-OV-3 cell line (inhibition of kynurenine production, LC-MS/MS)). Conditions: Homo sapiens, SK-OV-3, 24 h, SK-OV-3 cell line, 24 h incubation, kynurenine in supernatant by LC-MS/MS; read-out: IC50 Ranges (ic50 values for inhibition of Kynurenine production).
Type: cell-based
Summary of the method: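 Cells seeded overnight in McCoy's 5A/10% FBS, then switched to DMEM F-12 with 6 mg/mL L-tryptophan; compounds added at 8 3-fold dilutions from 30 μM, in duplicate, 24 h at 37 °C. Supernatant kynurenine measured by LC-MS/MS; ATP-based viability run in parallel; IC50 from % inhibition of Kyn production.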

IC50, < 100 nM:
O=C(Nc1ccc(Cl)cc1)N(Cc1ccc2scnc2c1)C1CCC1 [Compound 260, 1-(1,3-benzothiazol-5-ylmethyl)-3-(4-chlorophenyl)-1-cyclobutyl-urea]
N#Cc1ccc(NC(=O)N(Cc2ccc3scnc3c2)C2CCC2)cc1 [Compound 261, 1-(1,3-benzothiazol-5-ylmethyl)-3-(4-cyanophenyl)-1-cyclobutyl-urea]
O=C(Nc1ccc(Cl)cc1)N(Cc1cccc2ncsc12)C1CCC1 [Compound 262, 1-(1,3-benzothiazol-7-ylmethyl)-3-(4-chlorophenyl)-1-cyclobutyl-urea]
Cc1ccc(CN(C(=O)Nc2ccc(C#N)cc2)c2conc2C)o1 [Compound 278, 3-(4-cyanophenyl)-1-[(5-methyl-2-furyl)methyl]-1-(3-methylisoxazol-4-yl)urea]
Cc1ncc(CN(C(=O)Nc2ccc(C#CCO)cc2)C2CCCC2)o1 [Compound 294, 1-cyclopentyl-3-[4-(3-hydroxyprop-1-ynyl)phenyl]-1-[(2-methyloxazol-5-yl)methyl]urea]
CCc1ccc(CN(C(=O)Nc2ccc(C#N)cc2)C2CCCC2)o1 [Compound 295, 3-(4-cyanophenyl)-1-cyclopentyl-1-[(5-ethyl-2-furyl)methyl]urea]
Cc1ccc(CN(C(=O)Nc2ccc(C#CCO)cc2)C2CCC2)o1 [Compound 297, 1-cyclobutyl-3-[4-(3-hydroxyprop-1-ynyl)phenyl]-1-[(5-methyl-2-furyl)methyl]urea]
Cc1ccc(CN(C(=O)Nc2ccc(Cl)cc2)c2nonc2C)o1 [Compound 298, 3-(4-chlorophenyl)-1-[(5-methyl-2-furyl)methyl]-1-(4-methyl-1,2,5-oxadiazol-3-yl)urea]
Cc1ccc(CN(C(=O)Nc2ccc(OC(F)F)cc2)c2cnoc2C)o1 [Compound 301, 3-[4-(difluoromethoxy)phenyl]-1-[(5-methyl-2-furyl)methyl]-1-(5-methylisoxazol-4-yl)urea]

IC50, 1000 to 5000 nM:
N#Cc1ccc(NC(=O)N(Cc2ccc3ncsc3c2)C2CCOCC2)cc1 [Compound 265, 1-(1,3-benzothiazol-6-ylmethyl)-3-(4-cyanophenyl)-1-tetrahydropyran-4-yl-urea]
Cc1ccc(CN(C(=O)Nc2ccc(C#N)cc2)c2ncnn2C)o1 [Compound 266, 3-(4-cyanophenyl)-1-[(5-methyl-2-furyl)methyl]-1-(2-methyl-1,2,4-triazol-3-yl) urea]
N#Cc1ccc(NC(=O)N(Cc2ccn3ccnc3n2)C2CCC2)cc1 [Compound 274, 3-(4-cyanophenyl)-1-cyclobutyl-1-(imidazo[1,2-a]pyrimidin-7-ylmethyl)urea]
O=C(Nc1ccc(Cl)cc1)N(Cc1ccn2ccnc2n1)C1CCC1 [Compound 275, 3-(4-chlorophenyl)-1-cyclobutyl-1-(imidazo[1,2-a]pyrimidin-7-ylmethyl)urea]
Cn1nccc1N(Cc1ccc2ncsc2c1)C(=O)Nc1ccc(C#CCO)cc1 [Compound 280, 1-(1,3-benzothiazol-6-ylmethyl)-3-[4-(3-hydroxyprop-1-ynyl)phenyl]-1-(2-methylpyrazol-3-yl)urea]
Cc1oncc1N(Cc1ccc2scnc2c1)C(=O)Nc1ccc(C#N)cc1 [Compound 281, 1-(1,3-benzothiazol-5-ylmethyl)-3-(4-cyanophenyl)-1-(5-methylisoxazol-4-yl)urea]
Cc1ccc(CN(C(=O)Nc2ccc(C#N)cc2)c2ccccn2)o1 [Compound 283, 3-(4-cyanophenyl)-1-[(5-methyl-2-furyl)methyl]-1-(2-pyridyl)urea]
Cc1ccc(CN(C(=O)Nc2ccc(Cl)cc2)C2CC3(COC3)C2)o1 [Compound 286, 3-(4-chlorophenyl)-1-[(5-methyl-2-furyl)methyl]-1-(2-oxaspiro[3.3]heptan-6-yl)urea]
Cc1oncc1N(Cc1ccnc(C(F)(F)F)c1)C(=O)Nc1ccc(C#N)cc1 [Compound 288, 3-(4-cyanophenyl)-1-(5-methylisoxazol-4-yl)-1-[[2-(trifluoromethyl)-4-pyridyl]methyl]urea]
Cc1ccc(CN(C(=O)Nc2ccc(Cl)cc2)c2nc3ccccc3s2)o1 [Compound 300, 1-(1,3-benzothiazol-2-yl)-3-(4-chlorophenyl)-1-[(5-methyl-2-furyl)methyl]urea]
Cn1nccc1N(Cc1ccnc(C(F)(F)F)c1)C(=O)Nc1ccc(Cl)cc1 [Compound 302, 3-(4-chlorophenyl)-1-(2-methylpyrazol-3-yl)-1-[[2-(trifluoromethyl)-4-pyridyl]methyl]urea]

IC50, 100 to 500 nM:
COc1ccc(NC(=O)N(Cc2ccc(C)o2)C2CCCC2)cn1 [Compound 253, 1-cyclopentyl-3-(6-methoxy-3-pyridyl)-1-[(5-methyl-2-furyl)methyl]urea]
N#Cc1ccc(NC(=O)N(Cc2ccc3nsnc3c2)C2CCC2)cc1 [Compound 255, 1-(2,1,3-benzothiadiazol-5-ylmethyl)-3-(4-cyanophenyl)-1-cyclobutyl-urea]
C#Cc1ccc(NC(=O)N(Cc2ccc(C)o2)C2CCOCC2)cc1 [Compound 259, 3-(4-ethynylphenyl)-1-[(5-methyl-2-furyl)methyl]-1-tetrahydropyran-4-yl-urea]
N#Cc1ccc(NC(=O)N(Cc2cccc3ncsc23)C2CCC2)cc1 [Compound 263, 1-(1,3-benzothiazol-7-ylmethyl)-3-(4-cyanophenyl)-1-cyclobutyl-urea]
Cc1ccc(CN(C(=O)Nc2ccc(Cl)cc2)c2cnnn2C)o1 [Compound 267, 3-(4-chlorophenyl)-1-[(5-methyl-2-furyl)methyl]-1-(3-methyltriazol-4-yl)urea]
Cc1ccc(CN(C(=O)Nc2ccc(Cl)cc2)[C@H]2C[C@@H](F)C2)o1 [Compound 271, 3-(4-chlorophenyl)-1-(3-fluorocyclobutyl)-1-[(5-methyl-2-furyl)methyl]urea]
Cc1ccc(CN(C(=O)Nc2ccc(Cl)cc2)[C@H]2C[C@H](F)C2)o1 [Compound 273, 3-(4-chlorophenyl)-1-(3-fluorocyclobutyl)-1-[(5-methyl-2-furyl)methyl]urea]
Cc1ccc(CN(C(=O)Nc2ccc(Cl)cc2)C23CC(C2)C3)o1 [Compound 284, 1-(1-bicyclo[1.1.1]pentanyl)-3-(4-chlorophenyl)-1-[(5-methyl-2-furyl)methyl]urea]
Cc1ccc(CN(C(=O)Nc2ccc(C#N)cc2)C23CC(C2)C3)o1 [Compound 285, 1-(1-bicyclo[1.1.1]pentanyl)-3-(4-cyanophenyl)-1-[(5-methyl-2-furyl)methyl]urea]
COc1ccc(NC(=O)N(Cc2ccc(C)o2)C2CCCC2)cc1 [Compound 290, 1-cyclopentyl-3-(4-methoxyphenyl)-1-[(5-methyl-2-furyl)methyl]urea]
Cc1oncc1N(Cc1cccc(C(F)(F)F)c1)C(=O)Nc1ccc(C#N)cc1 [Compound 293, 3-(4-cyanophenyl)-1-(5-methylisoxazol-4-yl)-1-[[3-(trifluoromethyl)phenyl]methyl]urea]
O=C(Nc1ccc(C#CCO)cc1)N(Cc1ccnc(C(F)(F)F)c1)C1CCC1 [Compound 296, 1-cyclobutyl-3-[4-(3-hydroxyprop-1-ynyl)phenyl]-1-[[2-(trifluoromethyl)-4-pyridyl]methyl]urea]
CCc1ccc(CN(C(=O)Nc2ccc(C#N)cc2)c2cnoc2C)o1 [Compound 299, 3-(4-cyanophenyl)-1-[(5-ethyl-2-furyl)methyl]-1-(5-methylisoxazol-4-yl)urea]
Cc1ccc(CN(C(=O)Nc2ccc(C#N)cc2)c2cnoc2)o1 [Compound 304, 3-(4-cyanophenyl)-1-isoxazol-4-yl-1-[(5-methyl-2-furyl)methyl]urea]

IC50, > 5000 nM:
C#Cc1ccc(NC(=O)N(Cc2ccc(C)o2)C2CCN(C)CC2)cc1 [Compound 258, 3-(4-ethynylphenyl)-1-[(5-methyl-2-furyl)methyl]-1-(1-methyl-4-piperidyl)urea]
CN1CCC(N(Cc2ccc3ncsc3c2)C(=O)Nc2ccc(C#N)cc2)CC1 [Compound 264, 1-(1,3-benzothiazol-6-ylmethyl)-3-(4-cyanophenyl)-1-(1-methyl-4-piperidyl) urea]
Cc1ccc(CN(C(=O)Nc2ccc(C#N)cc2)C2CC3(COC3)C2)o1 [Compound 287, 3-(4-cyanophenyl)-1-[(5-methyl-2-furyl)methyl]-1-(2-oxaspiro[3.3]heptan-6-yl)urea]
Cc1ccc(CN(C(=O)Nc2ccc(O)cc2)C2CCCC2)o1 [Compound 303, 1-cyclopentyl-3-(4-hydroxyphenyl)-1-[(5-methyl-furyl)methyl]urea]

IC50, 500 to 1000 nM:
Cc1ccc(CN(C(=O)Nc2ccc(Cl)cc2)C2CCC(C#N)C2)o1 (stereo not shown) [Compound 254, 3-(4-chlorophenyl)-1-(3-cyanocyclopentyl)-1-[(5-methyl-2-furyl)methyl]urea]
Cc1ccc(CN(C(=O)Nc2ccc(C#N)cc2)c2cnnn2C)o1 [Compound 268, 3-(4-cyanophenyl)-1-[(5-methyl-2-furyl)methyl]-1-(3-methyltriazol-4-yl)urea]
Cc1ccc(CN(C(=O)Nc2ccc(C#N)cc2)[C@H]2C[C@H](F)C2)o1 [Compound 272, 3-(4-cyanophenyl)-1-(3-fluorocyclobutyl)-1-[(5-methyl-2-furyl)methyl]urea]
Cc1ccc(CN(C(=O)Nc2ccc(Cl)cc2)c2ccccn2)o1 [Compound 282, 3-(4-chlorophenyl)-1-[(5-methyl-2-furyl)methyl]-1-(2-pyridyl)urea]
Cc1ncc(CN(C(=O)Nc2ccc(C#N)cc2)C2CCCC2)o1 [Compound 291, 3-(4-cyanophenyl)-1-cyclopentyl-1-[(2-methyloxazol-5-yl)methyl]urea]
